One data set deals with anesthetized monkeys. Briefly: mean arterial pressure during venous infusion in anesthetized monkeys. Type of data set: in vivo, cynomologus monkeys (Macaca fascicularis). How it is done: (§1) Fifty milligrams of SNP (Nipride, Roche Laboratories) was reconstituted in 250 ml of 5% dextrose in water. A GSNO solution was diluted as 50 ug/ml in 5% dextrose in water. Seven mongrel dogs (18.1-31.8 kg) and seven cynomologus monkeys (Macaca fascicularis; 4.4-9.0 kg) were used in the study. The animals were given a pre-anesthetic (monkeys--Ketamine HCl, 10 mg/kg I.M.; dogs--0.2 mg/kg fentanyl and 1 mg/kg droperidol, Innovar Vet I.V.) and anesthetized with a mixture of α-chloralose (50 mg/kg) and urethane (500 mg/kg) given as an intravenous injection. The left femoral artery and vein were cannulated with heparinized saline-filled catheters. Arterial pressure was obtained from the arterial catheter using an electromedics MS-20 solid state pressure transducer and recorded on a Gould 2400 chart recorder. Randomized venous infusions of GSNO (n=7) and SNP (n=5) were made using Harvard apparatus compact infusion pump model 976. The infusion was maintained until a new steady state value for mean arterial pressure had been obtained for each infusion rate. The infusion rate was varied over the following ranges: GSNO 1.5-38.9 μg/kg/min (8 levels) and SNP 1.7-43.8 μg/kg/min (6 levels).
(§2) Intravenous administrations of GSNO or SNP in a wide range of doses decreased systematic arterial pressure in a dose related fashion. […]

Data set [1] has as its system anesthetized dogs. Put plainly: mean arterial pressure during venous infusion in anesthetized dogs. Format: in vivo, mongrel dogs. The procedure:
as §1, §2

Data set [2] in a line: storage stability of solid GSNO (absorbance at 544 nm). Type of data set: physicochemical. The procedure:
In air at 4° no change in the characteristic original absorbance at 544 nm was observed after 32 days. At room temperature, 75% of that absorption remained after the same period.

Data set [3] relates to anesthetized dogs and monkeys. Briefly: venous infusion in anesthetized dogs and monkeys, collected animal data (response time, onset/dissipation, effective dosage). Type of data set: in vivo. The procedure:
as §1
Intravenous administrations of GSNO or SNP in a wide range of doses decreased systematic arterial pressure in a dose related fashion. FIGS. 1 and 2 show the dose-response curves for the dogs and monkeys, respectively, that occurred by SNP or GSNO administrations. In each figure (.) presents the data for SNP and (o) presents the data for GSNO. The blood pressure lowering effect of SNP and GSNO is greater in monkeys than in dogs. When 20 μg/kg/min of SNP or GSNO was administered, mean arterial pressure decreased 35-40 torr for dogs and 45 torr for monkeys. The noted response time for SNP was about 28.6±2.5 sec. and for GSNO about 33.4±6.0 sec.
From the collected animal data, it can be noted that in general the decrease in blood pressure is dosage dependent.

A short description of data set [4]: stability of other nitrosothiols (qualitative statement). Type of data set: physicochemical.
Data set [5] concerns anesthetized dogs. Put plainly: arterial blood pressure after intravenous injection in anesthetized dogs (Examples 2 and 3). Format: in vivo. The conditions noted are these: intravenous injection in dextrose.
Method: A GSNO solution was diluted as 50 ug/ml in 5% dextrose in water. […] The animals were given a pre-anesthetic (monkeys--Ketamine HCl, 10 mg/kg I.M.; dogs--0.2 mg/kg fentanyl and 1 mg/kg droperidol, Innovar Vet I.V.) and anesthetized with a mixture of α-chloralose (50 mg/kg) and urethane (500 mg/kg) given as an intravenous injection. The left femoral artery and vein were cannulated with heparinized saline-filled catheters. Arterial pressure was obtained from the arterial catheter using an electromedics MS-20 solid state pressure transducer and recorded on a Gould 2400 chart recorder. […] The infusion was maintained until a new steady state value for mean arterial pressure had been obtained for each infusion rate.
By following in general the procedure described for GSNO in Example 1, animal experiments are performed on a plurality of anesthetized dogs with each intravenous injection of S-Nitrosocaptopril in dextrose as well as the arterial blood pressure of the dogs being recorded.
The specific injections as well as the arterial blood pressure of the dogs are recorded.

`N[C@@H](CCC(=O)N[C@@H](CSN=O)C(=O)NCC(=O)O)C(=O)O` [GSNO, S-nitrosoglutathione]: the “blood pressure lowering (in words)” value is listed as “significantly lowered blood pressure” with anesthetized monkeys (anesthetized monkeys, venous infusion, to about the same extent as SNP) and “significantly lowered blood pressure” in the data set with anesthetized dogs [1] (anesthetized dogs, venous infusion, to about the same extent as SNP). Further, the “decrease in mean arterial pressure” value with anesthetized monkeys (monkeys, 20 μg/kg/min venous infusion) was 45 torr; in the data set on anesthetized dogs [1] (dogs, 20 μg/kg/min venous infusion), 35-40 torr. Also, the “change in characteristic original absorbance at 544 nm” value in data set [2] (in air at 4°, after 32 days) is given as “no change”. Also, the “absorption at 544 nm remaining” value in data set [2] (room temperature, after 32 days) came out at 75%. Also, the “effect of exclusion of light and air on stability” value in data set [2] (storage for more than 30 days) is on record as “virtually no noticeable effect”. The “onset and dissipation of effect” value in data set [3] (anesthetized dogs and monkeys, compared with SNP) is on record as “essentially the same as obtained with SNP”. Also, the “effective dosage to significantly lower arterial pressure” value in data set [3] (infusion administration, from the collected animal data) is “at least 7 μg/1 kg animal weight/minute”. The response time result in data set [3] (venous infusion, species not stated) is reported as “about 33.4±6.0 sec”.

On to `C[C@H](CSN=O)C(=O)N1CCC[C@H]1C(=O)O` [S-Nitrosocaptopril, D-(S-nitroso) 3-mercaptomethylpropionyl-L-proline], for which the “stability (in words)” value in data set [4] is “quite stable”. Also, the “lowering of arterial blood pressure (in words)” value in the data set on anesthetized dogs [5] was “Significant lowering of arterial blood pressure”.

(Values after patent US4900719A, “Nitrosothiols as hypotensive agents” (The Ohio State University, priority 1988, dated 1990).)
